Test results reported in patent publication US20060194969A1, “4-Substituted benzimidazoles and their uses as inhibitors of gastric secretion” (priority 2002, published 2006).

melting point	Compound
213 to 214 °C	Cc1nc2c(OCc3ccccc3)cc(CO)cc2n1C [Example 5, 4-Benzyloxy-6-hydroxymethyl-1,2-dimethyl-1H-benzimidazole]
118 to 119 °C	Cc1cccc(C)c1CNc1cc(C2=NCCN2C)cc2c1nc(C)n2C [Example 73, 6-(4,5-Dihydro-1-methyl-1H-imidazol-2-yl)-4-(2,6-dimethyl-benzylamino)-1,2-dimethyl-1H-benzimidazole]
120 °C	CCOC(=O)c1cc(OCc2ccccc2)c2nc(C3CC3)n(C)c2c1 [Example 86, Ethyl 4-benzyloxy-2-cyclopropyl-1-methyl-1H-benzimidazole-6-carboxylate]
180 °C	Cc1cccc(C)c1COc1cc(C(=O)N(C)C)cc2c1nc(C)n2C [Example 9, 6-(N,N-Dimethylaminocarbonyl)-4-(2,6-dimethyl-benzyloxy)-1,2-dimethyl-1H-benzimidazole]
157 °C	CCc1cccc(C)c1COc1cc(C(=O)OC)cc2c1nc(C)n2C [Example 1, Methyl 4-(2-ethyl-6-methyl-benzyloxy)-1,2-dimethyl-1H-benzimidazole-6-carboxylate]
306 °C	Cc1nc2c(O[C@@H]3c4ccccc4C[C@H]3O)cc(C(=O)O)cc2n1C (relative stereo) [Example 16, 4-(trans-2,3-Dihydro-2-hydroxy-1-indenyloxy)-1,2-dimethyl-1H-benzimidazole-6-carboxylic Acid]
219 to 221 °C	Cc1nc2c(N[C@@H]3c4ccccc4C[C@H]3O)cc(C(=O)N(C)C)cc2n1C (relative stereo) [Example 51, 4-(trans-2,3-Dihydro-2-hydroxy-1-indenylamino)-6-(N,N-dimethylaminocarbonyl)-1,2-dimethyl-1H-benzimidazole]
138 to 141 °C	CCc1cccc(C)c1CNc1cc(C(=O)N(C)C)cc2c1nc(CO)n2C [Example 83, 6-(N,N-Dimethylaminocarbonyl)-4-(2-ethyl-6-methyl-benzylamino)-2-hydroxymethyl-1-methyl-1H-benzimidazole]
193 to 195 °C	COC(=O)Nc1cccc(C)c1CNc1cc(C(=O)N(C)C)cc2c1nc(C)n2C [Example 50, 6-(N,N-Dimethylaminocarbonyl)-4-(2-methoxycarbonylamino-6-methyl-benzylamino)-1,2-dimethyl-1H-benzimidazole]
148 to 149 °C	Cc1nc2c(O[C@@H]3c4ccccc4C[C@H]3O)cc(C(=O)NC3CC3)cc2n1C (relative stereo) [Example 26, 6-(Cyclopropylaminocarbonyl)-4-(trans-2,3-dihydro-2-hydroxy-1-indenyloxy)-1,2-dimethyl-1H-benzimidazole]
237 to 238 °C	Cc1cccc(C)c1CNc1cc(S(=O)(=O)N(C)C)cc2c1nc(C)n2C [Example 63, 7-(2,6-Dimethyl-benzylamino)-2,3-dimethyl-3H-benzimidazole-5-sulfonic acid dimethylamide]
203 °C	Cc1nc2c(NCc3c(C)cccc3C)cc(C(=O)N(C)C)cc2[nH]1 [Example 67, 6-(N,N-Dimethylaminocarbonyl)-4-(2,6-dimethyl-benzylamino)-2-methyl-1H-benzimidazole]
126 to 127 °C	CO[C@@H]1Cc2ccccc2[C@H]1Oc1cc(C(=O)N(C)C)cc2c1nc(C)n2C.O=C(O)C(=O)O (relative stereo) [Example 12, 4-(trans-2,3-Dihydro-2-methoxy-1-indenyloxy)-6-(N,N-dimethylaminocarbonyl)-1,2-dimethyl-1H-benzimidazole Oxalate]
259 to 260 °C	Cc1cccc(C)c1CNc1cc(C(=O)NCCO)cc2c1nc(C)n2C [Example 36, 4-(2,6-Dimethyl-benzylamino)-6-(2-hydroxyethyl-aminocarbonyl)-1,2-dimethyl-1H-benzimidazole]
184 °C	CCOC(=O)c1cc(O[C@@H]2c3c(C)ccc(C)c3C[C@H]2O)c2nc(C)n(C)c2c1 (relative stereo) [Example 20, Ethyl 4-(trans-2,3-dihydro-2-hydroxy-4,7-dimethyl-1-indenyloxy)-1,2-dimethyl-1H-benzimidazole-6-carboxylate]
298 °C	CNC(=O)c1cc(NCc2c(C)cccc2C)c2nc(C)[nH]c2c1 [Example 69, 4-(2,6-Dimethyl-benzylamino)-6-(N-methylaminocarbonyl)-2-methyl-1H-benzimidazole]
158 to 159 °C	Cc1ccccc1CNc1cc(C(=O)N(C)C)cc2c1nc(C)n2C [Example 61, 6-(N,N-Dimethylaminocarbonyl)-1,2-dimethyl-4-(2-methyl-benzylamino)-1H-benzimidazole]
163 to 164 °C	Cc1coc(C)c1N(C)c1cc(C(=O)N(C)C)cc2c1nc(C)n2C [Example 62, 6-(N,N-Dimethylaminocarbonyl)-4-(2,4-dimethyl-furan-3-yl-methylamino)-1,2-dimethyl-1H-benzimidazole]
177 to 178 °C	Cc1cccc(C)c1CNc1cc(C(=O)N(C)CCO)cc2c1nc(C)n2C [Example 56, 4-(2,6-Dimethyl-benzylamino)-6-(N-2-hydroxyethyl-N-methylaminocarbonyl)-1,2-dimethyl-1H-benzimidazole]

melting point	Compound
277 to 278 °C	Cc1cccc(C)c1CNc1cc(C(=O)NN)cc2c1nc(C)n2C [Example 57, 4-(2,6-Dimethyl-benzylamino)-1,2-dimethyl-1H-benzimidazole-6-carboxylic acid hydrazide]
201 to 202 °C	Cc1cccc(C)c1CNc1cc(C(=O)N2CC2)cc2c1nc(C)n2C [Example 54, 6-(1-Aziridinylcarbonyl)-4-(2,6-dimethyl-benzylamino)-1,2-dimethyl-1H-benzimidazole]
165 to 166 °C	CCOC(=O)c1cc(NCc2c(C)cccc2C)c2nc(C)n(OC)c2c1 [Example 78, Ethyl 4-(2,6-dimethyl-benzylamino)-1-methoxy-2-methyl-1H-benzimidazole-6-carboxylate]
134 to 135 °C	CCOC(=O)c1cc(NCc2c(C)cccc2C)c2nc(COC)n(C)c2c1 [Example 30, Ethyl 4-(2,6-dimethyl-benzylamino)-2-methoxymethyl-1-methyl-1H-benzimidazole-6-carboxylate]
159 to 160 °C	Cc1nc2c(OCc3ccccc3)cc(C(=O)N(C)C)cc2n1C [Example 7, 4-Benzyloxy-6-(N,N-dimethylaminocarbonyl)-1,2-dimethyl-1H-benzimidazole]
128 to 129 °C	COn1c(C)nc2c(NCc3c(C)cccc3C)cc(C(=O)N(C)C)cc21 [Example 80, 6-(N,N-Dimethylamino-carbonyl)-4-(2,6-dimethyl-benzylamino)-1-methoxy-2-methyl-1H-benzimidazole]
186 to 187 °C	COCc1nc2c(NCc3c(C)cccc3C)cc(C(=O)NCCO)cc2n1C [Example 37, 4-(2,6-Dimethyl-benzylamino)-6-(2-hydroxyethyl-aminocarbonyl)-2-methoxymethyl-1-methyl-1H-benzimidazole]
171 to 173 °C	CCOC(=O)c1cc(NCc2c(C)cccc2CC)c2nc(C)n(C)c2c1 [Example 27, Ethyl 4-(2-ethyl-6-methyl-benzylamino)-1,2-dimethyl-1H-benzimidazole-6-carboxylate]
165 to 169 °C	COC(=O)c1cc(OCc2c(C)cccc2C)c2nc(C)n(C)c2c1 [Example 3, Methyl 4-(2,6-dimethyl-benzyloxy)-1,2-dimethyl-1H-benzimidazole-6-carboxylate]
312 to 314 °C	CCc1cccc(C)c1CNc1cc(C(=O)O)cc2c1nc(C)n2C [Example 31, 4-(2-Ethyl-6-methyl-benzylamino)-1,2-dimethyl-1H-benzimidazole-6-carboxylic Acid]
269 to 272 °C	COCc1nc2c(NCc3c(C)cccc3C)cc(C(=O)O)cc2n1C [Example 34, 4-(2,6-Dimethyl-benzylamino)-2-methoxymethyl-1-methyl-1H-benzimidazole-6-carboxylic Acid]
277 °C	Cc1cccc(C)c1CNc1cc(Br)cc2c1nc(C)n2O [Example 76, 6-Bromo-4-(2,6-dimethyl-benzylamino)-1-hydroxy-2-methyl-1H-benzimidazole]
273 to 274 °C	Cc1cccc(C)c1CNc1cc(C2=NCCN2)cc2c1nc(C)n2C [Example 72, 6-(4,5-Dihydro-1H-imidazol-2-yl)-4-(2,6-dimethyl-benzylamino)-1,2-dimethyl-1H-benzimidazole]
272 °C	Cc1cccc(C)c1CNc1cc(C(N)=O)cc2c1nc(C)n2C [Example 39, 4-(2,6-Dimethyl-benzylamino)-1,2-dimethyl-1H-benzimidazole-6-carboxamide]
235 °C	Cc1cccc(C)c1CNc1cc(C2=NCCO2)cc2c1nc(C)n2C [Example 74, 6-(4,5-Dihydro-oxazol-2-yl)-4-(2,6-dimethyl-benzylamino)-1,2-dimethyl-1H-benzimidazole]
132 to 134 °C	Cn1c(C2CC2)nc2c(O[C@@H]3c4ccccc4C[C@H]3O)cc(C(=O)O)cc21 (relative stereo) [Example 59, 2-Cyclopropyl-4-(trans-2,3-dihydro-2-hydroxy-1-indenyloxy)-1-methyl-1H-benzimidazole-6-carboxylic acid]
166 °C	COC(=O)c1cc(OCc2ccccc2)c2nc(C)n(C)c2c1 [Example 53, Methyl 4-benzyloxy-1,2-dimethyl-1H-benzimidazole-6-carboxylate]
285 to 286 °C	Cc1cccc(C)c1COc1cc(C(=O)O)cc2c1nc(C)n2C [Example 4, 4-(2,6-Dimethyl-benzyloxy)-1,2-dimethyl-1H-benzimidazole-6-carboxylic Acid]
168 to 169 °C	CCc1cccc(C)c1CNc1cc(C(=O)N(C)C)cc2c1nc(C)n2COCc1ccccc1.O=C(O)C(=O)O [Example 48, 1-Benzyloxymethyl-6-(N,N-dimethylaminocarbonyl)-4-(2-ethyl-6-methyl-benzylamino)-2-methyl-1H-benzimidazole Oxalate]

Compound	melting point
CC(=O)OCc1nc2c(NCc3c(C)cccc3C)cc(Br)cc2n1C [Example 81, 2-Acetoxymethyl-6-bromo-4-(2,6-dimethyl-benzylamino)-1-methyl-1H-benzimidazole]	188 to 190 °C
